Six compounds from ChEMBL document CHEMBL1127015, “Centrally acting serotonergic and dopaminergic agents. 1. Synthesis and structure-activity relationships of 2,3,3a,4,5,9b-hexahydro-1H-benz[e]indole derivatives” (J Med Chem, 1993) can be followed below.

Where “and” joins values, the source holds several entries; their conditions need not be identical. Equal entries are not always repeated.

The test system of assay [1] is Rattus norvegicus. The assay can be described thus: Effect on the synthesis rates of serotonin in the rat ventral limbic brain region at 2.7 micro mol/kg. The assay is classed as functional, Limbic system.
For assay [2], the system named is Mus musculus. The assay can be described thus: Maximum decrease in temperature when compound is administered subcutaneously. The assay is classed as functional.
Assay [3] deals with Rattus norvegicus. The assay can be described thus: Effect on the synthesis rates of serotonin in the rat ventral limbic brain region at 12 micro mol/kg. The assay is classed as functional, Limbic system.
The test system of assay [4] is Mus musculus. The assay is described as follows: Maximum decrease in temperature when compound is administered through peroral route. Format: functional.
In assay [5] the test system is Rattus norvegicus. The assay can be described thus: Effect on the synthesis rates of dopamine in the rat ventral limbic brain region at 12 micro mol/kg. The assay is classed as functional, Limbic system.
In assay [6] the test system is Felis catus. The assay is described as follows: Maximum decrease of arterial blood pressure at sympathetic nerve activity (SND) in anesthetized cat has been observed following 1 mg/kg dose. Format: functional. Also on record: scale not given: the % may be the effect or the level left.
For assay [7], the system named is Felis catus. The assay can be described thus: Maximum decrease of sympathetic nerve activity (SND) in anesthetized cat. Also on record: scale not given: the % may be the effect or the level left. The assay is classed as functional.
Assay [8] relates to Rattus norvegicus. The assay is described as follows: Inhibition of firing rates of serotonergic neurons in the dorsal raphe nucleus by intravenous injection in rats. Format: functional.
Assay [9] addresses T1, D(2) dopamine receptor (Rattus norvegicus, UniProt P61169). The assay is described as follows: Inhibitory concentration against [3H]raclopride-labeled dopamine receptor D2 in rat striatum. The assay is classed as tissue-based.
Assay [10] deals with Mus musculus. The assay can be described thus: Effective dose on hypothermia in mouse when administered subcutaneously. Format: functional. Conditions: sc.
Assay [11] relates to Mus musculus. The assay can be described thus: Effective dose on hypothermia in mouse when administered through peroral route. Conditions: po. Format: functional.
For assay [12], the species on record is Felis catus. The assay is described as follows: Percent of arterial blood pressure at sympathetic nerve activity (SND) dose value was determined. The assay is classed as functional.
For assay [13], the system named is Felis catus. The assay can be described thus: Effective dose at which the sympathetic nerve activity (SND) has been reduced to 50% of the pretreatment value in anesthetized cat. The assay is classed as functional.
The subject of assay [14] is Mus musculus. The assay can be described thus: Increase in locomotor activity in reserpinized mice following 0.4 umol/kg i.p. The assay is classed as functional.
The target of assay [15] is T2, D(2) dopamine receptor (Homo sapiens, UniProt P14416). The assay is described as follows: Binding affinity against [3H]U-86,170-labeled dopamine receptor D2 in cloned CHO cells. The assay is classed as cell-based.
T2 sequence (P14416 whole entry): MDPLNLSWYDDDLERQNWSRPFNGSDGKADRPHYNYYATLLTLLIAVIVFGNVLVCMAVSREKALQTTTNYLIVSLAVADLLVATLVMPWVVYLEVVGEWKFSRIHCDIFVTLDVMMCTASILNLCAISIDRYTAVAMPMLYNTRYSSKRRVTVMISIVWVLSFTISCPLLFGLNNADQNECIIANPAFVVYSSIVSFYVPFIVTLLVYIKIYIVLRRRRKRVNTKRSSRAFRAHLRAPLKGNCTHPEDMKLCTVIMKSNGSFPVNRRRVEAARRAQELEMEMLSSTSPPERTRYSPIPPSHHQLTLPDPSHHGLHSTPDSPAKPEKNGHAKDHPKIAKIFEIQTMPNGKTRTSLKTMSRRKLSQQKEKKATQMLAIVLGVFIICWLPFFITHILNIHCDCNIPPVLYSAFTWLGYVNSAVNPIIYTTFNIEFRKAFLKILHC
The target in assay [16] is T2, D(2) dopamine receptor. The assay is described as follows: Intrinsic activity from GTP shift using membranes from CHO cells transfected with mammalian dopamine receptor D2. Format: cell membranes.
For assay [17], the system named is Mus musculus. The assay can be described thus: Antagonism of apomorphine in reserpinized mice when a dose of 3.7 micro mol/kg is administered intraperitoneally. The assay is classed as functional.
In assay [18] the test system is Mus musculus. The assay can be described thus: Antagonism of apomorphine effects for 0-10 minutes in reserpinized mice following 0.4 umol/kg i.p. Also on record: unit not given beside the values. The assay is classed as functional.
In assay [19] the target is T1, D(2) dopamine receptor. The assay is described as follows: Binding affinity against [3H]raclopride-labeled dopamine receptor D2 in rat striatum. The assay is classed as tissue-based.
The test system of assay [20] is Mus musculus. The assay is described as follows: Antagonism of apomorphine for 0-10 minutes in reserpinized mice when a dose of 37 micro mol/kg is administered intraperitoneally. Format: functional.
Assay [21] has as its system Mus musculus. The assay is described as follows: Antagonism of apomorphine for 10-20 minutes in reserpinized mice when a dose of 3.7 micro mol/kg is administered intraperitoneally. The assay is classed as functional.
The test system of assay [22] is Mus musculus. The assay can be described thus: Antagonism of apomorphine effects for 10-20 minutes in reserpinized mice following 0.4 umol/kg i.p. The assay is classed as functional.
In assay [23] the test system is Mus musculus. The assay is described as follows: Ability to stimulate dopaminergic systems by effect on locomotor activity in reserpinized mice when a dose of 3.7 micro mol/kg is administered intraperitoneally. Format: functional.
Assay [24] deals with Mus musculus. The assay can be described thus: Antagonism of apomorphine for 0-10 minutes in reserpinized mice when a dose of 3.7 micro mol/kg is administered intraperitoneally. The assay is classed as functional.
For assay [25], the system named is Mus musculus. The assay can be described thus: Antagonism of apomorphine effects in reserpinized mice following 0.4 umol/kg i.p. Format: functional.
Assay [26] deals with Mus musculus. The assay can be described thus: Antagonism of apomorphine for 10-20 minutes in reserpinized mice when a dose of 37 micro mol/kg is administered intraperitoneally. Format: functional.
The test system of assay [27] is Mus musculus. The assay can be described thus: Antagonism of apomorphine in reserpinized mice when a dose of 37 micro mol/kg is administered intraperitoneally. Format: functional.
In assay [28] the test system is Mus musculus. The assay can be described thus: Ability to stimulate dopaminergic systems by effect on locomotor activity in reserpinized mice when a dose of 37 micro mol/kg is administered intraperitoneally. The assay is classed as functional.
The test system of assay [29] is Rattus norvegicus. The assay is described as follows: Inhibition of firing rates of dopaminergic neurons in the substantia nigra pars compacta by intravenous injection in rats. Format: functional. Conditions: Rattus norvegicus, Substantia nigra pars compacta, iv; read-out: ED50.
Assay [30] is filed under the species Rattus norvegicus. The assay can be described thus: Effect on the synthesis rates of serotonin (5-HTP accumulation) in the rat ventral limbic brain region at 10.2uMkg. Format: functional, Limbic system.
The species entered for assay [31] is Rattus norvegicus. The assay can be described thus: Effect on the synthesis rates of serotonin (5-HTP accumulation) in the rat ventral limbic brain region at 10.6uMkg. The assay is classed as functional, Limbic system.
The species named for assay [32] is Rattus norvegicus. The assay can be described thus: Effect on the synthesis rates of serotonin (5-HTP accumulation) in the rat ventral limbic brain region at 10.6uMkg. Format: functional, Limbic system.
Assay [33] concerns Felis catus. The assay can be described thus: Maximum decrease of sympathetic nerve activity (SND) in anesthetized cat has been expressed as percent control. Format: functional. Also on record: scale not given: the % may be the effect or the level left.
Assay [34] has as its system Rattus norvegicus. The assay is described as follows: Inhibition of firing rates of serotonergic neurons in the dorsal raphe nucleus by intravenous injection in rats. Format: functional.
The subject of assay [35] is Mus musculus. The assay can be described thus: Time of effect in the isolation-induced aggression behavioral assay in the mouse when a dose of 3.4 micro mol/kg is administered intraperitoneally. The assay is classed as functional.
The subject of assay [36] is Mus musculus. The assay is described as follows: Time of effect in the isolation-induced aggression behavioral assay in the mouse when a dose of 10 micro mol/kg is administered intraperitoneally. Format: functional.
Assay [37] relates to Mus musculus. The assay is described as follows: Time of effect in the face-to-face behavioral assay in the mouse when a dose of 0.0 micro mol/kg is administered subcutaneously. Format: functional.
In assay [38] the test system is Mus musculus. The assay can be described thus: Time of effect in the face-to-face behavioral assay in the mouse when a dose of 34 micro mol/kg is administered subcutaneously. Format: functional.

T1 sequence (P61169 whole entry): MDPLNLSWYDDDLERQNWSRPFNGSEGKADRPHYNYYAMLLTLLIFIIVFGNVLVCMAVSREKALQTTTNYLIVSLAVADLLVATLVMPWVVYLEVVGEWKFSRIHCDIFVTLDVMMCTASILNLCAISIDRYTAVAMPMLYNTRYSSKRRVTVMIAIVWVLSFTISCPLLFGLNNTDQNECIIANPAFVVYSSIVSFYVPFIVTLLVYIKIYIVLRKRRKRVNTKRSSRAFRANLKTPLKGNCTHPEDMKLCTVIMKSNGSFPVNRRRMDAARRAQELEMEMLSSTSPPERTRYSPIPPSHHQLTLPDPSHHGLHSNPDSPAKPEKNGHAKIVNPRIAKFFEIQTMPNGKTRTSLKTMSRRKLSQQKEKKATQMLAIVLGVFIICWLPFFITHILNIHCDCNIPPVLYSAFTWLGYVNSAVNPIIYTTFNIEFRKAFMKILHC

Take `O=C(CCCN1CCC(O)(c2ccc(Cl)cc2)CC1)c1ccc(F)cc1` [HALOPERIDOL]: the Control with Rattus norvegicus [1] was -7%.

The ED50 is the midpoint of the dose-response relation. By IC50 is commonly meant the concentration that inhibits the measured activity by half. In the case of `C=CCN1CC[C@H]2c3ccccc3CC[C@H]21` (racemic), the Max temperature decrease is 4.4 with Mus musculus [2] and 4 with Mus musculus [4]. The Control in the assay with Rattus norvegicus [3] is -46%; in the assay on Rattus norvegicus [5], 20%; in the assay with Felis catus [6], 60%; in the assay with Felis catus [7], 0%. Moreover, the ED50 was 0.12 µmol/kg in the assay on Rattus norvegicus [8], 22 µmol/kg in the assay with Mus musculus [10], 69 µmol/kg in the assay with Mus musculus [11] and 0.36 µmol/kg in the assay with Felis catus [13]. This compound gave an IC50 at D(2) dopamine receptor [9] greater than 1000 nM. This compound also yielded a BP in the assay filed under Felis catus [12] of 76%.

As usually defined, the Ki is the equilibrium dissociation constant of an inhibitor or competing ligand from its target. With `CCCN1CC[C@@H]2c3cccc(O)c3CC[C@H]21` (racemic), the Locomotor activity in the assay with Mus musculus [14] turned out to be 63; with Mus musculus [17] it was 46; in the assay with Mus musculus [18], 54; with Mus musculus [20], 6; in the assay with Mus musculus [21], 47; in the assay on Mus musculus [22], 86. Besides, the Locomotor activity in the assay on Mus musculus [23] came out at 2; in the assay on Mus musculus [24] it was 34; in the assay with Mus musculus [25], 72; in the assay with Mus musculus [26] it was 5; in the assay on Mus musculus [27] it was 4; in the assay on Mus musculus [28], 162. Moreover, the Ki at D(2) dopamine receptor [15] came to 93 nM; at D(2) dopamine receptor [19], 33 nM. Besides, the Intrinsic activity on D(2) dopamine receptor [16] worked out at 28%. In the assay with Rattus norvegicus [29], the ED50 is 0.43 µmol/kg.

In the case of `COc1cccc2c1CC[C@@H]1[C@H]2CCN1CC1CC1` (racemic), the Ki at D(2) dopamine receptor [19] was greater than 10000 nM. Also, in the assay filed under Rattus norvegicus [30], the Control was -15% and -7%.

Turning to `CCCN1CC[C@H]2c3cccc(OC)c3CC[C@H]21` (racemic), the Control in the assay listed under Rattus norvegicus [31] amounted to 34%; in the assay listed under Rattus norvegicus [32] it was 7%.

Take `CCCN1[C@H](C)CC2c3c(cccc3OC)CC[C@H]21` (mixture of isomers): the results for the Max temperature decrease with Mus musculus [2] and in the assay with Mus musculus [4] were 5.2 and 2.4, respectively. For the same compound, the Control with Felis catus [33] is recorded as 250%; in the assay on Felis catus [6] it was 65%. Moreover, the ED50 in the assay with Rattus norvegicus [34] was found to be 0.1 µmol/kg; in the assay on Mus musculus [10], 19 µmol/kg; in the assay on Mus musculus [11], 104 µmol/kg; with Rattus norvegicus [29], 1.7 µmol/kg. Further, the Time came out at 17 s with Mus musculus [35], 8 s in the assay on Mus musculus [36], 0.6 s with Mus musculus [37] and 1.5 s in the assay on Mus musculus [38]. The compound further gave an IC50 against D(2) dopamine receptor [9] greater than 1000 nM.
